Drawing on ChEMBL document CHEMBL1138774, “Potent and selective ketoamide-based inhibitors of cysteine protease, cathepsin K” (J Med Chem, 2004), this text covers IC50 and Selectivity for six molecules.

The target in one experiment is T1, Cathepsin K (Homo sapiens, UniProt P43235).
T1 sequence (P43235 whole entry): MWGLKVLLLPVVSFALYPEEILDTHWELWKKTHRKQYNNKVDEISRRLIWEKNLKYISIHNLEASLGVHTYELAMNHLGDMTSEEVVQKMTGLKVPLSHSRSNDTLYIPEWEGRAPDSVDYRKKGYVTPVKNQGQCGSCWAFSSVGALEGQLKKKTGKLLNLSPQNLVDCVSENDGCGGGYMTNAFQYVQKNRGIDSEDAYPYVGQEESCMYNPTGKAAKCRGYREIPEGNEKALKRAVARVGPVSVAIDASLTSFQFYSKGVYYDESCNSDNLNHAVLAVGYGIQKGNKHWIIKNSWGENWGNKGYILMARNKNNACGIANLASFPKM
The experiment in a line: Inhibitory potency against human Cathepsin K.

The target in experiment [1] is Cathepsin (H and K) (Homo sapiens) (UniProt P09668+P43235). The experiment in a line: Selectivity for human cathepsin H over human cathepsin K. Format: protein assay.
Chain of Cathepsin (H and K) (Homo sapiens) (P09668 whole entry, looked up, one chain of several): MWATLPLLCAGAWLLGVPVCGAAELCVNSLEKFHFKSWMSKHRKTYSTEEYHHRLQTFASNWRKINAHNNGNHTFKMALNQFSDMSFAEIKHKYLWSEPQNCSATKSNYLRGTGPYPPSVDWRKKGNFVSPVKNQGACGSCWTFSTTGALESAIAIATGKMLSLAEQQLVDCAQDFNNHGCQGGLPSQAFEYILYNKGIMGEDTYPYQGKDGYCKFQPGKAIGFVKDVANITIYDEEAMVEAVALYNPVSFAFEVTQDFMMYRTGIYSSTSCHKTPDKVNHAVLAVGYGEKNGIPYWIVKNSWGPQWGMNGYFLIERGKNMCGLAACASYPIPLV
The target of experiment [2] is Cathepsin (V and K) (Homo sapiens) (UniProt P43235+O60911). The experiment in a line: Selectivity for human cathepsin V over human cathepsin K. Format: protein assay.
Chain of Cathepsin (V and K) (Homo sapiens) (O60911 whole entry, looked up, one chain of several): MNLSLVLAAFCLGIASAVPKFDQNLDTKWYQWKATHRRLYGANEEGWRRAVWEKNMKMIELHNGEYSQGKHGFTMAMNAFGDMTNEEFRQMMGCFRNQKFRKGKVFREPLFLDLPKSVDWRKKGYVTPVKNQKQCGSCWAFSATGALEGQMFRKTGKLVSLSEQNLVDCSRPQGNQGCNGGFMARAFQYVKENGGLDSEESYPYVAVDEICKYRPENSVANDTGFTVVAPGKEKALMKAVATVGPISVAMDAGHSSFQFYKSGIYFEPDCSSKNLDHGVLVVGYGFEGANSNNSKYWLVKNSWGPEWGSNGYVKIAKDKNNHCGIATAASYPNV
In experiment [3] the target is Cathepsin (S and K) (Homo sapiens) (UniProt P25774+P43235). The experiment in a line: Selectivity for human cathepsin S over human cathepsin K. Format: protein assay.
Chain of Cathepsin (S and K) (Homo sapiens) (P25774 whole entry, looked up, one chain of several): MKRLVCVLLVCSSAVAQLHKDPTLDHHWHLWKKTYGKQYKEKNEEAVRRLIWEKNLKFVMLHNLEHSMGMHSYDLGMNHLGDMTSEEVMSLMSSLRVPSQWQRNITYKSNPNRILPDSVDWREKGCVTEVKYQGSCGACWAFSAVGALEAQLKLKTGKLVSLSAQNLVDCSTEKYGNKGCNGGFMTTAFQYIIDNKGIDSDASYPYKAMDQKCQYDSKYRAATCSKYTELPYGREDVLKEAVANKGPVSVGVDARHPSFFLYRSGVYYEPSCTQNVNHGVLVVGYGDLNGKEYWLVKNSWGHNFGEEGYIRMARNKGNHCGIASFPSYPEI
Experiment [4] addresses Cathepsin (L and K) (Homo sapiens) (UniProt P43235+P07711). The experiment in a line: Selectivity for human cathepsin L over human cathepsin K. Format: protein assay.
For experiment [5], the target named is Cathepsin (B and K) (Homo sapiens) (UniProt P43235+P07858). The experiment in a line: Selectivity for human cathepsin B over human cathepsin K. Format: protein assay.

Structures are written as SMILES. Bounds are passed on as bounds.

The IC50 is the concentration that inhibits the measured activity by half. A low value points to greater potency.

Chain of Cathepsin (L and K) (Homo sapiens) (P07711 whole entry, looked up, one chain of several): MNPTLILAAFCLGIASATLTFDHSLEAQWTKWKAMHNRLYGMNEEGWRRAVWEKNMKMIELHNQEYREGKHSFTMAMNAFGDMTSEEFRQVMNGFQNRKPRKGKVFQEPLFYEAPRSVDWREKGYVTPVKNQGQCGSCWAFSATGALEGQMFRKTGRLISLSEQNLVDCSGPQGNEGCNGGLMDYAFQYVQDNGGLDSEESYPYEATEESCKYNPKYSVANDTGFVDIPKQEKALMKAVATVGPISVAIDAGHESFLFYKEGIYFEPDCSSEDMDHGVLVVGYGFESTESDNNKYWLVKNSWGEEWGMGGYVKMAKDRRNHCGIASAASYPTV

`CCCC[C@H](NC(=O)OCC1(CC)COC1)C(=O)C(=O)N[C@H](C)c1ccccc1` returned an IC50 against Cathepsin K of 68 nM.
As for `CCCC[C@H](NC(=O)OCC1(CC)CCC1)C(=O)C(=O)Nc1ccnn1CC1CC1`, the Selectivity in experiment [1] was above 250; in experiment [2] it was 102; in experiment [3], 33; in experiment [4], above 250; in experiment [5] it was above 250. This molecule yielded an IC50 at Cathepsin K of 51 nM.
Regarding `CCCC[C@H](NC(=O)OCC1(CC)CCC1)C(=O)C(=O)Nc1ccnn1CC(C)C`, the Selectivity is above 170 in experiment [1]; 89 in experiment [2]; 14 in experiment [3]; above 170 in experiment [4]; above 170 in experiment [5]. This molecule returned an IC50 against Cathepsin K of 76 nM.
`CCCC[C@H](NC(=O)OCC1(CC)COC1)C(=O)C(=O)Nc1cc(-c2ccccc2)n[nH]1` displayed an IC50 against Cathepsin K of 10 nM.
As for `CCCC[C@H](NC(=O)OCC1(CC)CCC1)C(=O)C(=O)Nc1ccnn1C1CCC1`, the Selectivity in experiment [1] is above 280; in experiment [2], 49; in experiment [3] it was 14; in experiment [4], 270; in experiment [5], above 280. On Cathepsin K, this molecule yielded a concentration for half-maximal inhibition (IC50) of 45 nM.
Regarding `CCCC[C@H](NC(=O)OCC1(CC)CCC1)C(=O)C(=O)Nc1ccon1`, inhibition on Cathepsin K was half-maximal at 20 nM (IC50).
